From patent US11878986B2, “Poly heterocyclic conjugates and their pharmaceutical uses” (National Health Research Institutes, priority 2020, dated 2024)

Tested on: human pancreatic cancer cells (MIA PaCa-2)
Assay: Tumor growth inhibition in subcutaneous xenograft model, MIA PaCa-2
Type: in vivo, mouse
Conditions: s.c. xenograft in athymic nude mice; i.v. 1-5 mg/kg, once/week or twice/week for 1-3 weeks; vs vehicle control, p<0.05; FIG. 1
Experimental: The efficacy of compounds 2 and 11 in inhibiting the growth of human pancreatic cancer cells (MIA PaCa-2) and the efficacy of compounds 1-4, 23, 25, and 26 in inhibiting the growth of human triple-negative breast cancer cells (HCC1806) were assessed as follows.
Male and female athymic NU-Fox1^nu nude mice (BioLASCO, Taiwan) at age 4-5 weeks were housed in sterilized cages equipped with an air filter and sterile bedding materials at the Laboratory Animal Center of the National Health Research Institutes (NHRI), which is an AAALAC International accredited facility. All the mice were fed with sterilized water and chow ad libitum under 12-hr light/12-hr dark cycle throughout the study. […]
The MIA PaCa-2 and HCC1806 cells were suspended in phenol-red-free culture medium/Matrigel™ (1/1) and implanted subcutaneously (s.c.) into the left flank of the nude mice (1×10^6 cells/flank) via a 1 mL syringe. Tumor dimensions were measured twice a week using a digital caliper and the tumor volume (mm^3) was calculated based on the formula, i.e., volume=(length×width^2)/2.
Tumor-bearing mice were randomized (n=7-8 per group) when the average tumor volume reached approximately 200 mm^3. […] Tumor size and body weight of each animal were measured twice a week. Data was expressed as the mean or mean±standard error of the mean (SEM). […]

SMILES	inhibition of the growth of MIA PaCa-2 (tumor volume)
CCCCCC(=O)Nc1cccc(CN(Cc2cc(CN(Cc3ccccn3)Cc3cccc(NC(=O)CCCCC)n3)cc(OCCCCN(Cc3ccc(-c4ccccc4)cc3)C(=O)COCCOCCOCC(=O)NCc3ccc(CNC(=O)CCSSCCC(=O)N(C)[C@H](C)C(=O)O[C@@H]4CC(=O)N(C)c5cc(cc(OC)c5Cl)C/C(C)=C/C=C/[C@H](OC)[C@]5(O)C[C@@H](OC(=O)N5)[C@H](C)[C@H]5O[C@]54C)cc3)c2)Cc2ccccn2)n1 [Compound 2]	significantly inhibited the growth
CCCCCC(=O)Nc1cccc(CN(Cc2cc(CN(Cc3ccccn3)Cc3cccc(NC(=O)CCCCC)n3)cc(OCCCCNC(=O)COCCOCCOCC(=O)NCc3ccc(CNC(=O)CCSSCCC(=O)N(C)[C@H](C)C(=O)O[C@@H]4CC(=O)N(C)c5cc(cc(OC)c5Cl)C/C(C)=C/C=C/[C@H](OC)[C@]5(O)C[C@H](OC(=O)N5)[C@H](C)C5O[C@@]54C)cc3)c2)Cc2ccccn2)n1 (some centres unmarked) [Compound 11]	significantly inhibited the growth
